Laboratory results taken from ChEMBL document CHEMBL2057193, “Preparation of 3-substituted-1-isopropyl-1H-pyrazolo[3,4-d]pyrimidin-4-amines as RET kinase inhibitors” (J Med Chem, 2012).
Calls of active or inactive are those of the source. No cut-off for these calls is given here.

What was measured:
[1] = target: T1, Proto-oncogene tyrosine-protein kinase receptor Ret (Homo sapiens, UniProt P07949); assay: Inhibition of RET by commercial radiometric assay
[2] = target: T2, Mitogen-activated protein kinase; ERK1/ERK2 (Homo sapiens) (UniProt P27361+P28482); assay: Inhibition of ERK1/2 phosphorylation in human HCT116 cells at 50 to 200 nM by Western blotting; assay type: cell-based; conditions: HCT-116
[3] = target: T2, Mitogen-activated protein kinase; ERK1/ERK2 (Homo sapiens); assay: Inhibition of nuclear translocation of ERK1/2 in human HCT116 cells at 200 nM by immunofluorescence microscopy; assay type: cell-based; conditions: HCT-116
[4] = tested on: HCT-116; assay: Antiproliferative activity against human HCT116 cells; assay type: functional, cell-based
[5] = tested on: TPC1; assay: Antiproliferative activity against human TPC1 cells; assay type: functional, cell-based
[6] = tested on: HCT-116; assay: Antiproliferative activity against human HCT116 cells at 1 uM; assay type: functional, cell-based
[7] = tested on: TPC1; assay: Antiproliferative activity against human TPC1 cells at 1 uM; assay type: functional, cell-based
[8] = tested on: HCT-116; assay: Toxicity in human HCT116 cells at =< 10 uM; assay type: cell-based
[9] = tested on: TPC1; assay: Toxicity in human TPC1 cells at =< 10 uM; assay type: cell-based
[10] = target: T1, Proto-oncogene tyrosine-protein kinase receptor Ret; conditions: MCF7, 100 nM
Description: Inhibition of RET in serum starved human MCF7 cells assessed as reduction in GDNF-induced ERK1/2 phosphorylation at 100 nM added 30 mins before GDNF stimulation and incubated for further 45 mins by Western blotting

[11] = target: T1, Proto-oncogene tyrosine-protein kinase receptor Ret; conditions: TPC1, 50 to 200 nM
Description: Inhibition of RET in human TPC1 cells expressing constitutively active RET fusion protein assessed as reduction in ERK1/2 phosphorylation at 50 to 200 nM by Western blotting

[12] = target: T1, Proto-oncogene tyrosine-protein kinase receptor Ret; conditions: TPC1, 200 nM
Description: Inhibition of RET in human TPC1 cells expressing constitutively active RET fusion protein assessed as reduction in nuclear translocation of ERK1/2 at 200 nM by immunofluorescence microscopy

T1 sequence (P07949 whole entry): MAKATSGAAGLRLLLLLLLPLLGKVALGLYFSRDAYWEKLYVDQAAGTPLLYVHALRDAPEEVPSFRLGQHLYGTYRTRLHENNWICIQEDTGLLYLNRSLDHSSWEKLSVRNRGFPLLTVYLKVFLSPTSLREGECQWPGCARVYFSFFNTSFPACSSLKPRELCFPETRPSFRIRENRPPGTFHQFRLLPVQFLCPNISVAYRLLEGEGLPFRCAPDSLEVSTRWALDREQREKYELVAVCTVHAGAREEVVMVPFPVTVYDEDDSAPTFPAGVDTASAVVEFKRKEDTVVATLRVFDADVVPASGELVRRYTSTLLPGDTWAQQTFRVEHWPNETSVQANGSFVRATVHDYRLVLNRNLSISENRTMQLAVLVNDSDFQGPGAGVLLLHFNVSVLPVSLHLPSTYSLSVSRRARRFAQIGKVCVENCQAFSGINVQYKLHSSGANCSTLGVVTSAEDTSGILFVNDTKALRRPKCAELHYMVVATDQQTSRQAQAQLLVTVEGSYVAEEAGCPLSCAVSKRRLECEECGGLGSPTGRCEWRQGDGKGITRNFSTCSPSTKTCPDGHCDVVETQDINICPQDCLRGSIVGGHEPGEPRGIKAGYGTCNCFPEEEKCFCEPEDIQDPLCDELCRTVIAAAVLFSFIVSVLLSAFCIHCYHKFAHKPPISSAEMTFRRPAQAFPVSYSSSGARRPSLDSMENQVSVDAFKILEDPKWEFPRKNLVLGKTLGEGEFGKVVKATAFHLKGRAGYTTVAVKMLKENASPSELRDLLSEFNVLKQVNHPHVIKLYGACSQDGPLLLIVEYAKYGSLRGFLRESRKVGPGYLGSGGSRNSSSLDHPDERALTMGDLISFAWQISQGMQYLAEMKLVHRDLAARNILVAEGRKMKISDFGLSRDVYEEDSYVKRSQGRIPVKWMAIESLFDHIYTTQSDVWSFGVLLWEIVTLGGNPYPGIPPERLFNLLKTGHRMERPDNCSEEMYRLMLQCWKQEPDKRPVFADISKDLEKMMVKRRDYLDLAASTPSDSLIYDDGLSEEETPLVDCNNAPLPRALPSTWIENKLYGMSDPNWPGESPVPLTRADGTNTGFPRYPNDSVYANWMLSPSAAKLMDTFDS
T2 sequence (P27361 whole entry, looked up): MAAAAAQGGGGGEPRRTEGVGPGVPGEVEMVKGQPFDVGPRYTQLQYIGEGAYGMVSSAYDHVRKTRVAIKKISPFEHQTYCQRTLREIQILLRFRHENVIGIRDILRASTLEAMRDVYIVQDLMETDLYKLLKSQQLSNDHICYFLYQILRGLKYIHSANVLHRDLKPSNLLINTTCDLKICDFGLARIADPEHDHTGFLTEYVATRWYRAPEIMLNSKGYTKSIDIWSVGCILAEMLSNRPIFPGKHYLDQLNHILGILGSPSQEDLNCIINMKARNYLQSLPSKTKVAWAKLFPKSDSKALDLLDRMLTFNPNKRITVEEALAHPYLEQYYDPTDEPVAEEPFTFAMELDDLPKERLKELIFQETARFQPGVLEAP
T2 sequence (P28482 whole entry, looked up): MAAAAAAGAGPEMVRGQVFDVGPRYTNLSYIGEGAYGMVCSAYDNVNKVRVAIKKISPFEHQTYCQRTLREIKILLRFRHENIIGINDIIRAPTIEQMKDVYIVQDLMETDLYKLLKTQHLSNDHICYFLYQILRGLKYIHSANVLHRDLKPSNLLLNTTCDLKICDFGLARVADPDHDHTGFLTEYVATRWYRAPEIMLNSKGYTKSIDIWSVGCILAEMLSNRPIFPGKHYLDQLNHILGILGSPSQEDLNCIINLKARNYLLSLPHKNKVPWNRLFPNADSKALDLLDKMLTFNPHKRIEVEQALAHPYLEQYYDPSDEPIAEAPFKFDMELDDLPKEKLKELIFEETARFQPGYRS

| SMILES | IC50 [1] | inhibition [2] | inhibition [3] | EC50 [4] | EC50 [5] | inhibition [6] | inhibition [7] | Activity [8] | Activity [9] | inhibition [10] | inhibition [11] | inhibition [12] |
| --- | --- | --- | --- | --- | --- | --- | --- | --- | --- | --- | --- | --- |
| CC(C)n1nc(C#Cc2ccccc2)c2c(N)ncnc21 | 8 nM | inactive | inactive | 2400 nM | 3300 nM | inactive | Active | Non-toxic | Non-toxic | Active | Active | Active |
| CNC(=O)c1cc(Oc2ccc(NC(=O)Nc3ccc(Cl)c(C(F)(F)F)c3)cc2)ccn1 [SORAFENIB] |  |  |  |  | 2600 nM |  |  |  |  |  |  |  |
